Measurements taken from ChEMBL document CHEMBL1201862, “PubChem BioAssay data set” (2004).
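Following 48 hours of exposure in 96-well plates, responses at five concentrations were used to interpolate endpoints linearly. GI50 is the concentration that inhibits growth by half.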 The source made the active and inactive calls. Rule as the data show it: active = GI50 up to about 1.1 µM and inactive = higher.

Columns and labels:
Experiment in all cases: NCI-60 cell line screen, 48 h
HCC 2998 = test system: HCC 2998
HCT-116 = test system: HCT-116
K562 = test system: K562
KM12 = test system: KM12
LOX IMVI = test system: LOX IMVI
MDA-MB-231 = test system: MDA-MB-231
MDA-N = test system: MDA-N
MOLT-4 = test system: MOLT-4
NCI-H226 = test system: NCI-H226
NCI/ADR-RES = test system: NCI/ADR-RES
OVCAR-4 = test system: OVCAR-4
OVCAR-5 = test system: OVCAR-5
RXF 393 = test system: RXF 393
SK-OV-3 = test system: SK-OV-3
SNB-75 = test system: SNB-75
SW-620 = test system: SW-620
U-251 = test system: U-251
UACC-62 = test system: UACC-62
DU-145 = test system: DU-145
RPMI-8226 = test system: RPMI-8226

Compound | GI50 (HCC 2998) | GI50 (HCT-116) | GI50 (K562) | GI50 (KM12) | GI50 (LOX IMVI) | GI50 (MDA-MB-231) | GI50 (MDA-N) | GI50 (MOLT-4) | GI50 (NCI-H226) | GI50 (NCI/ADR-RES) | GI50 (OVCAR-4) | GI50 (OVCAR-5) | GI50 (RXF 393) | GI50 (SK-OV-3) | GI50 (SNB-75) | GI50 (SW-620) | GI50 (U-251) | GI50 (UACC-62) | GI50 (DU-145) | GI50 (RPMI-8226)
CC(C)(C)n1c(=O)n(-c2ccccc2)n(C(C)(C)C)c1=O | > 100 µM (inactive) | > 100 µM (inactive) | > 100 µM (inactive) | > 100 µM (inactive) | > 100 µM (inactive) | > 100 µM (inactive) | > 100 µM (inactive) | > 100 µM (inactive) | > 100 µM (inactive) | > 100 µM (inactive) | > 100 µM (inactive) | > 100 µM (inactive) | > 100 µM (inactive) | > 100 µM (inactive) | 63.1 µM (inactive) | > 100 µM (inactive) | > 100 µM (inactive) | > 100 µM (inactive) |  | 
COc1ccc(NC(=O)/C(=N\NC(=O)C[n+]2ccccc2)c2c(O)c3ccc(O)cc3oc2=O)c([N+](=O)[O-])c1 | > 100 µM (inactive) | > 100 µM (inactive) | > 100 µM (inactive) | 40.1 µM (inactive) | > 100 µM (inactive) | > 100 µM (inactive) | > 100 µM (inactive) | 85.5 µM (inactive) | > 100 µM (inactive) | > 100 µM (inactive) | > 100 µM (inactive) | > 100 µM (inactive) |  | > 100 µM (inactive) | 92 µM (inactive) | > 100 µM (inactive) | > 100 µM (inactive) | > 100 µM (inactive) | > 100 µM (inactive) | > 100 µM (inactive)
C=C1C(=O)O[C@@H]2C[C@@H](C)[C@@H]3C=CC(=O)[C@@]3(C)[C@@H](O)[C@H]12 [HELENALIN] | 1.51 µM (inactive) | 0.51 µM (active) | 0.622 µM (active) | 1.53 µM (inactive) | 0.574 µM (active) | 3.95 µM (inactive) | 2.08 µM (inactive) | 0.851 µM (active) | 1.63 µM (inactive) |  | 2.77 µM (inactive) | 1.71 µM (inactive) | 0.466 µM (active) |  | 0.0352 µM (active) | 0.719 µM (active) | 0.769 µM (active) | 1.39 µM (inactive) | 3.79 µM (inactive) | 0.532 µM (active)
CCCCCCCC/C=C\CCCCCCCC(=O)OC[C@]1(CO)CCC(=O)O1 | > 100 µM (inactive) | > 100 µM (inactive) | > 100 µM (inactive) | > 100 µM (inactive) | > 100 µM (inactive) | > 100 µM (inactive) |  | > 100 µM (inactive) | > 100 µM (inactive) | > 100 µM (inactive) | > 100 µM (inactive) | > 100 µM (inactive) | > 100 µM (inactive) | > 100 µM (inactive) | > 100 µM (inactive) | > 100 µM (inactive) | > 100 µM (inactive) | > 100 µM (inactive) | > 100 µM (inactive) | 
COc1cc(/C=C2\[C@H]3c4c(c(OC)c(C)c(OC)c4OC)C[C@@H](C(=O)N2Cc2ccccc2)N3C(=O)OCC(C)C)c(OC)c(C)c1OC | > 78.9 µM (inactive) | 12.1 µM (inactive) | 42.2 µM (inactive) | > 100 µM (inactive) | > 100 µM (inactive) |  |  | 12.3 µM (inactive) | 1.16 µM (inactive) |  | > 100 µM (inactive) | > 27.5 µM (inactive) | > 100 µM (inactive) | > 100 µM (inactive) | > 83.2 µM (inactive) | > 31.6 µM (inactive) | > 85.5 µM (inactive) | > 100 µM (inactive) |  | 13.6 µM (inactive)
NCCS(=O)(=O)O [TAURINE] | > 100 µM (inactive) | > 100 µM (inactive) | > 100 µM (inactive) | > 100 µM (inactive) | > 100 µM (inactive) | > 100 µM (inactive) | > 100 µM (inactive) | > 100 µM (inactive) | > 100 µM (inactive) | > 100 µM (inactive) |  | > 100 µM (inactive) |  |  | > 100 µM (inactive) | > 100 µM (inactive) | > 100 µM (inactive) |  | > 100 µM (inactive) | > 100 µM (inactive)
CCOC(=O)CNC1C(NC(C)=O)C(OC)OC2COC(c3ccccc3)OC21 (stereo not given) | > 100 µM (inactive) | > 100 µM (inactive) | > 100 µM (inactive) | > 100 µM (inactive) | > 100 µM (inactive) |  |  | > 10 µM (inactive) | > 100 µM (inactive) |  | > 100 µM (inactive) | > 100 µM (inactive) | > 100 µM (inactive) | > 100 µM (inactive) | > 100 µM (inactive) | > 100 µM (inactive) | > 100 µM (inactive) | > 100 µM (inactive) |  | > 100 µM (inactive)
CCCCCCc1cc2cc(-c3cn4ccsc4n3)c(=O)oc2cc1O | > 100 µM (inactive) | > 67.6 µM (inactive) | > 75.2 µM (inactive) | > 100 µM (inactive) | > 100 µM (inactive) | > 75 µM (inactive) |  | > 100 µM (inactive) | > 100 µM (inactive) | > 100 µM (inactive) | > 79.6 µM (inactive) | > 100 µM (inactive) | 29.3 µM (inactive) | > 100 µM (inactive) | 8.15 µM (inactive) | > 79.6 µM (inactive) | 45.6 µM (inactive) | 19.1 µM (inactive) | > 79.1 µM (inactive) | 98.9 µM (inactive)
